One assay relates to HCT-116. Put plainly: Antiproliferative activity against human HCT116 cells after 72 hrs by phosphatase assay. The class given is functional, cell-based. To be noted: HCT-116, 72 h.
A short description of assay [1]: Cytotoxicity against human HCT116/VM46 cells assessed as reduction in cell viability after 72 hrs by phosphatase assay. The class given is cell-based. To be noted: HCT-116/VM46, 72 h.
The subject of another assay is L1210. As to the kind of experiment: Antiproliferative activity against mouse L1210 cells after 72 hrs by phosphatase assay. To be noted: L1210, 72 h. The class given is functional, cell-based.

Structures are written as SMILES.

What is called IC50 is the concentration that inhibits the measured activity by half. Consider `CC[C@]1(NC(=O)c2ccc(C)c(NC(=O)OC(C)(C)C)c2)C[C@H]2CN(CCc3c([nH]c4ccccc34)[C@@](C(=O)OC)(c3cc4c(cc3OC)N(C)[C@H]3[C@@](O)(C(=O)OC)[C@H](OC(C)=O)[C@]5(CC)C=CCN6CC[C@]43[C@@H]65)C2)C1`, for which the IC50 in the assay with HCT-116 was found to be 7.1 nM; in assay [1] it was 90 nM; in the assay on L1210, 6 nM.
Regarding `CC[C@]1(NC(=O)c2ccccc2F)C[C@H]2CN(CCc3c([nH]c4ccccc34)[C@@](C(=O)OC)(c3cc4c(cc3OC)N(C)[C@H]3[C@@](O)(C(=O)OC)[C@H](OC(C)=O)[C@]5(CC)C=CCN6CC[C@]43[C@@H]65)C2)C1`, the IC50 is 7.7 nM with HCT-116, 75 nM in assay [1] and 8.4 nM with L1210.
With `CC[C@]1(NC(=O)c2ccc(C3CCCCC3)cc2)C[C@H]2CN(CCc3c([nH]c4ccccc34)[C@@](C(=O)OC)(c3cc4c(cc3OC)N(C)[C@H]3[C@@](O)(C(=O)OC)[C@H](OC(C)=O)[C@]5(CC)C=CCN6CC[C@]43[C@@H]65)C2)C1`, the IC50 was determined as 30 nM with HCT-116, 60 nM in assay [1] and 40 nM in the assay on L1210.
For the compound `CC[C@]1(NC(=O)Cc2ccccc2)C[C@H]2CN(CCc3c([nH]c4ccccc34)[C@@](C(=O)OC)(c3cc4c(cc3OC)N(C)[C@H]3[C@@](O)(C(=O)OC)[C@H](OC(C)=O)[C@]5(CC)C=CCN6CC[C@]43[C@@H]65)C2)C1`, the IC50 is 55 nM with HCT-116, 550 nM in assay [1] and 55 nM in the assay with L1210.
Consider `CCc1cc(CC)cc(C(=O)N[C@@]2(CC)C[C@H]3CN(CCc4c([nH]c5ccccc45)[C@@](C(=O)OC)(c4cc5c(cc4OC)N(C)[C@H]4[C@@](O)(C(=O)OC)[C@H](OC(C)=O)[C@]6(CC)C=CCN7CC[C@]54[C@@H]76)C3)C2)c1`, for which the IC50 in the assay on HCT-116 was determined as 6.4 nM; in assay [1], 66 nM; in the assay with L1210, 4.2 nM.
As for `C=CC(=O)N[C@@]1(CC)C[C@H]2CN(CCc3c([nH]c4ccccc34)[C@@](C(=O)OC)(c3cc4c(cc3OC)N(C)[C@H]3[C@@](O)(C(=O)OC)[C@H](OC(C)=O)[C@]5(CC)C=CCN6CC[C@]43[C@@H]65)C2)C1`, the IC50 was determined as 6 nM in the assay on HCT-116, 520 nM in assay [1] and 7 nM with L1210.
For the compound `CC[C@]1(NC(=O)c2ccc(NC)cc2)C[C@H]2CN(CCc3c([nH]c4ccccc34)[C@@](C(=O)OC)(c3cc4c(cc3OC)N(C)[C@H]3[C@@](O)(C(=O)OC)[C@H](OC(C)=O)[C@]5(CC)C=CCN6CC[C@]43[C@@H]65)C2)C1`, the figures for the IC50 (in the assay on HCT-116; in assay [1]; with L1210) were 0.33 nM, 6.2 nM and 0.38 nM, respectively.
On to `CC[C@]1(NC(=O)C2CCOCC2)C[C@H]2CN(CCc3c([nH]c4ccccc34)[C@@](C(=O)OC)(c3cc4c(cc3OC)N(C)[C@H]3[C@@](O)(C(=O)OC)[C@H](OC(C)=O)[C@]5(CC)C=CCN6CC[C@]43[C@@H]65)C2)C1`, for which the IC50 with HCT-116 worked out at 35 nM; in assay [1], 3500 nM; in the assay on L1210, 70 nM.
For `CC[C@]1(NC(=O)c2ccc3cnccc3c2)C[C@H]2CN(CCc3c([nH]c4ccccc34)[C@@](C(=O)OC)(c3cc4c(cc3OC)N(C)[C@H]3[C@@](O)(C(=O)OC)[C@H](OC(C)=O)[C@]5(CC)C=CCN6CC[C@]43[C@@H]65)C2)C1`, in that order: 0.6 nM, 7.3 nM and 0.6 nM.
Consider `CC[C@]1(NC(=O)C2Cc3ccccc3C2)C[C@H]2CN(CCc3c([nH]c4ccccc34)[C@@](C(=O)OC)(c3cc4c(cc3OC)N(C)[C@H]3[C@@](O)(C(=O)OC)[C@H](OC(C)=O)[C@]5(CC)C=CCN6CC[C@]43[C@@H]65)C2)C1`, for which the IC50 in the assay with HCT-116 amounted to 15 nM; in assay [1], 80 nM; in the assay on L1210, 30 nM.
For `CC[C@]1(NC(=O)c2cocn2)C[C@H]2CN(CCc3c([nH]c4ccccc34)[C@@](C(=O)OC)(c3cc4c(cc3OC)N(C)[C@H]3[C@@](O)(C(=O)OC)[C@H](OC(C)=O)[C@]5(CC)C=CCN6CC[C@]43[C@@H]65)C2)C1`, in that order: 4 nM, 90 nM and 4.5 nM.
On the same counts, the results for `CC[C@]1(NC(=O)c2cccs2)C[C@H]2CN(CCc3c([nH]c4ccccc34)[C@@](C(=O)OC)(c3cc4c(cc3OC)N(C)[C@H]3[C@@](O)(C(=O)OC)[C@H](OC(C)=O)[C@]5(CC)C=CCN6CC[C@]43[C@@H]65)C2)C1` are 0.6 nM, 6.7 nM and 0.6 nM.
For `CC[C@]1(NC(=O)C(c2ccccc2)c2ccccc2)C[C@H]2CN(CCc3c([nH]c4ccccc34)[C@@](C(=O)OC)(c3cc4c(cc3OC)N(C)[C@H]3[C@@](O)(C(=O)OC)[C@H](OC(C)=O)[C@]5(CC)C=CCN6CC[C@]43[C@@H]65)C2)C1`, in that order: 3800 nM, 5100 nM and 760 nM.
On to `CC[C@]1(NC(=O)c2ccc(C)c(NC(C)=O)c2)C[C@H]2CN(CCc3c([nH]c4ccccc34)[C@@](C(=O)OC)(c3cc4c(cc3OC)N(C)[C@H]3[C@@](O)(C(=O)OC)[C@H](OC(C)=O)[C@]5(CC)C=CCN6CC[C@]43[C@@H]65)C2)C1`, for which the IC50 is 4.3 nM in the assay with HCT-116, 330 nM in assay [1] and 5.4 nM with L1210.
As for `CC[C@]1(NC(=O)c2ccc3c(c2)CCO3)C[C@H]2CN(CCc3c([nH]c4ccccc34)[C@@](C(=O)OC)(c3cc4c(cc3OC)N(C)[C@H]3[C@@](O)(C(=O)OC)[C@H](OC(C)=O)[C@]5(CC)C=CCN6CC[C@]43[C@@H]65)C2)C1`, the IC50 with HCT-116 was 0.25 nM; in assay [1], 2.4 nM; with L1210, 0.3 nM.
`CC[C@]1(NC(=O)c2ccccc2C(F)(F)F)C[C@H]2CN(CCc3c([nH]c4ccccc34)[C@@](C(=O)OC)(c3cc4c(cc3OC)N(C)[C@H]3[C@@](O)(C(=O)OC)[C@H](OC(C)=O)[C@]5(CC)C=CCN6CC[C@]43[C@@H]65)C2)C1`: the results for the IC50 (in the assay with HCT-116; in assay [1]; in the assay on L1210) were 60 nM, 540 nM and 45 nM, respectively.
On to `CC[C@]1(NC(=O)C2CCCCC2)C[C@H]2CN(CCc3c([nH]c4ccccc34)[C@@](C(=O)OC)(c3cc4c(cc3OC)N(C)[C@H]3[C@@](O)(C(=O)OC)[C@H](OC(C)=O)[C@]5(CC)C=CCN6CC[C@]43[C@@H]65)C2)C1`, for which the IC50 in the assay on HCT-116 amounted to 70 nM; in assay [1], 760 nM; in the assay on L1210 it was 55 nM.
For `CC[C@]1(NC(=O)c2ccccn2)C[C@H]2CN(CCc3c([nH]c4ccccc34)[C@@](C(=O)OC)(c3cc4c(cc3OC)N(C)[C@H]3[C@@](O)(C(=O)OC)[C@H](OC(C)=O)[C@]5(CC)C=CCN6CC[C@]43[C@@H]65)C2)C1`, the IC50 in the assay on HCT-116 is 50 nM; in assay [1], 460 nM; in the assay with L1210 it was 55 nM.
On to `CCOc1ccc(C(=O)N[C@@]2(CC)C[C@H]3CN(CCc4c([nH]c5ccccc45)[C@@](C(=O)OC)(c4cc5c(cc4OC)N(C)[C@H]4[C@@](O)(C(=O)OC)[C@H](OC(C)=O)[C@]6(CC)C=CCN7CC[C@]54[C@@H]76)C3)C2)cc1OCC`, for which the concentration for half-maximal inhibition (IC50) with HCT-116 turned out to be 0.5 nM; in assay [1], 6 nM; in the assay on L1210, 0.4 nM.
As to `CC[C@]1(NC(=O)c2ccc3cc(OC)ccc3c2)C[C@H]2CN(CCc3c([nH]c4ccccc34)[C@@](C(=O)OC)(c3cc4c(cc3OC)N(C)[C@H]3[C@@](O)(C(=O)OC)[C@H](OC(C)=O)[C@]5(CC)C=CCN6CC[C@]43[C@@H]65)C2)C1`, the IC50 came out at 3.5 nM with HCT-116, 20 nM in assay [1] and 2.5 nM with L1210.
As for `CC[C@]1(NC(=O)c2ccc(OC)c(C)c2)C[C@H]2CN(CCc3c([nH]c4ccccc34)[C@@](C(=O)OC)(c3cc4c(cc3OC)N(C)[C@H]3[C@@](O)(C(=O)OC)[C@H](OC(C)=O)[C@]5(CC)C=CCN6CC[C@]43[C@@H]65)C2)C1`, the IC50 with HCT-116 was 0.7 nM; in assay [1], 5.2 nM; in the assay on L1210, 0.6 nM.
With `CC[C@]1(NC(=O)c2ccncc2)C[C@H]2CN(CCc3c([nH]c4ccccc34)[C@@](C(=O)OC)(c3cc4c(cc3OC)N(C)[C@H]3[C@@](O)(C(=O)OC)[C@H](OC(C)=O)[C@]5(CC)C=CCN6CC[C@]43[C@@H]65)C2)C1`, the IC50 amounted to 0.4 nM with HCT-116, 55 nM in assay [1] and 0.4 nM with L1210.
Consider `CC[C@]1(NC(=O)c2cc3ccccc3s2)C[C@H]2CN(CCc3c([nH]c4ccccc34)[C@@](C(=O)OC)(c3cc4c(cc3OC)N(C)[C@H]3[C@@](O)(C(=O)OC)[C@H](OC(C)=O)[C@]5(CC)C=CCN6CC[C@]43[C@@H]65)C2)C1`, for which the IC50 came to 1.9 nM in the assay on HCT-116, 9.2 nM in assay [1] and 3.1 nM with L1210.
For the compound `CC[C@]1(NC(=O)c2ccc3c(c2)OCCO3)C[C@H]2CN(CCc3c([nH]c4ccccc34)[C@@](C(=O)OC)(c3cc4c(cc3OC)N(C)[C@H]3[C@@](O)(C(=O)OC)[C@H](OC(C)=O)[C@]5(CC)C=CCN6CC[C@]43[C@@H]65)C2)C1`, the IC50 amounted to 0.5 nM in the assay with HCT-116, 5.3 nM in assay [1] and 0.6 nM in the assay on L1210.
For `CCC(=O)N[C@@]1(CC)C[C@H]2CN(CCc3c([nH]c4ccccc34)[C@@](C(=O)OC)(c3cc4c(cc3OC)N(C)[C@H]3[C@@](O)(C(=O)OC)[C@H](OC(C)=O)[C@]5(CC)C=CCN6CC[C@]43[C@@H]65)C2)C1`, in that order: 60 nM, 2100 nM and 60 nM.
For `CC[C@]1(NC(=O)c2ccc3cc(N)ccc3c2)C[C@H]2CN(CCc3c([nH]c4ccccc34)[C@@](C(=O)OC)(c3cc4c(cc3OC)N(C)[C@H]3[C@@](O)(C(=O)OC)[C@H](OC(C)=O)[C@]5(CC)C=CCN6CC[C@]43[C@@H]65)C2)C1`, in that order: 0.8 nM, 7.4 nM and 0.7 nM.

The record behind these values is ChEMBL document CHEMBL4017512 (J Med Chem, 2017).
